From ChEMBL document CHEMBL4613312, “Predictive Gene Signature for Pyrazolopyrimidine Derivative c-Src Inhibitor 10a Sensitivity in Melanoma Cells” (ACS Med Chem Lett, 2020)
Active and inactive are the calls of the source. No cut-off for these calls is given here.

Assays:
[1] = organism: Homo sapiens; test: Cytotoxicity against human M221 cells assessed as reduction in cell viability at 50 to 800 nM measured after 72 hrs by Celltiter-Glo luminescent assay; assay type: functional, cell-based
[2] = organism: Homo sapiens; test: Cytotoxicity against human M193 cells assessed as reduction in cell viability at 0.8 to 6 mM measured after 72 hrs by Celltiter-Glo luminescent assay; assay type: functional, cell-based
[3] = Cytotoxicity against human M189 cells assessed as reduction in cell viability measured after 72 hrs by Celltiter-Glo luminescent assay; assay type: functional, cell-based
[4] = organism: Homo sapiens; test: Upregulation of PLOD2 mRNA level in human M221 cells by SYBR-green dye based qRT-PCR analysis; assay type: functional, cell-based
[5] = Cytotoxicity against human M77 cells assessed as reduction in cell viability measured after 72 hrs by Celltiter-Glo luminescent assay; assay type: functional, cell-based
[6] = Cytotoxicity against human M193 cells assessed as reduction in cell viability measured after 72 hrs by Celltiter-Glo luminescent assay; assay type: functional, cell-based
[7] = Chemosensitization activity in human M221 cells assessed as reduction in cell viability at 20 uM measured after 72 hrs in presence of 200 nM sodium valproate by Celltiter-Glo luminescent assay relative to control; assay type: functional
[8] = Cytotoxicity against human M2025 cells assessed as reduction in cell viability measured after 72 hrs by Celltiter-Glo luminescent assay; assay type: functional, cell-based
[9] = organism: Homo sapiens; test: Upregulation of PLOD2 mRNA level in human M433 cells by SYBR-green dye based qRT-PCR analysis; assay type: functional, cell-based
[10] = Chemosensitization activity in human M193 cells assessed as reduction in cell viability at 20 uM measured after 72 hrs in presence of 6 mM sodium valproate by Celltiter-Glo luminescent assay relative to control; assay type: functional
[11] = organism: Homo sapiens; test: Downregulation of XRCC5 mRNA level in human M193 cells by SYBR-green dye based qRT-PCR analysis; assay type: functional, cell-based
[12] = Synergistic cytotoxicity against human M193 cells assessed as combination index at 20 uM measured after 72 hrs in presence of 6 mM sodium valproate by Celltiter-Glo luminescent assay based Chou-Talalay method; assay type: functional
[13] = organism: Homo sapiens; test: Upregulation of PLOD2 mRNA level in human M2025 cells by SYBR-green dye based qRT-PCR analysis; assay type: functional, cell-based
[14] = test system: M34; test: Downregulation of NSUN5 mRNA level in human M34 cells by SYBR-green dye based qRT-PCR analysis; assay type: functional, cell-based
[15] = Synergistic cytotoxicity against human M221 cells assessed as combination index at 20 uM measured after 72 hrs in presence of 0.2 mM sodium valproate by Celltiter-Glo luminescent assay based Chou-Talalay method; assay type: functional
[16] = Cytotoxicity against human M193 cells assessed as reduction in cell viability at 20 uM measured after 72 hrs by Celltiter-Glo luminescent assay relative to control; assay type: functional
[17] = organism: Homo sapiens; test: Downregulation of XRCC5 mRNA level in human M221 cells by SYBR-green dye based qRT-PCR analysis; assay type: functional, cell-based
[18] = organism: Homo sapiens; test: Upregulation of TMED7 mRNA level in human M433 cells by SYBR-green dye based qRT-PCR analysis; assay type: functional, cell-based
[19] = Cytotoxicity against human M221 cells assessed as reduction in cell viability measured after 72 hrs by Celltiter-Glo luminescent assay; assay type: functional, cell-based
[20] = Cytotoxicity against human M187 cells assessed as reduction in cell viability measured after 72 hrs by Celltiter-Glo luminescent assay; assay type: functional, cell-based
[21] = Chemosensitization activity in human M193 cells assessed as reduction in cell viability at 20 uM measured after 72 hrs in presence of 0.8 mM sodium valproate by Celltiter-Glo luminescent assay relative to control; assay type: functional
[22] = Cytotoxicity against human M144 cells assessed as reduction in cell viability measured after 72 hrs by Celltiter-Glo luminescent assay; assay type: functional, cell-based
[23] = Synergistic cytotoxicity against human M193 cells assessed as combination index at 20 uM measured after 72 hrs in presence of 0.8 mM sodium valproate by Celltiter-Glo luminescent assay based Chou-Talalay method; assay type: functional
[24] = organism: Homo sapiens; test: Upregulation of TMED7 mRNA level in human M193 cells by SYBR-green dye based qRT-PCR analysis; assay type: functional, cell-based
[25] = organism: Homo sapiens; test: Downregulation of NSUN5 mRNA level in human M193 cells by SYBR-green dye based qRT-PCR analysis; assay type: functional, cell-based
[26] = Chemosensitization activity in human M193 cells assessed as reduction in cell viability at 20 uM measured after 72 hrs in presence of 4 mM sodium valproate by Celltiter-Glo luminescent assay relative to control; assay type: functional
[27] = Synergistic cytotoxicity against human M221 cells assessed as combination index at 20 uM measured after 72 hrs in presence of 0.8 mM sodium valproate by Celltiter-Glo luminescent assay based Chou-Talalay method; assay type: functional
[28] = Cytotoxicity against human M1 cells assessed as reduction in cell viability measured after 72 hrs by Celltiter-Glo luminescent assay; assay type: functional, cell-based
[29] = Chemosensitization activity in human M221 cells assessed as reduction in cell viability at 20 uM measured after 72 hrs in presence of 50 nM sodium valproate by Celltiter-Glo luminescent assay relative to control; assay type: functional
[30] = Synergistic cytotoxicity against human M193 cells assessed as combination index at 20 uM measured after 72 hrs in presence of 4 mM sodium valproate by Celltiter-Glo luminescent assay based Chou-Talalay method; assay type: functional
[31] = test system: M34; test: Downregulation of XRCC5 mRNA level in human M34 cells by SYBR-green dye based qRT-PCR analysis; assay type: functional, cell-based
[32] = organism: Homo sapiens; test: Upregulation of TMED7 mRNA level in human M221 cells by SYBR-green dye based qRT-PCR analysis; assay type: functional, cell-based
[33] = Cytotoxicity against human M221 cells assessed as reduction in cell viability at 20 uM measured after 72 hrs by Celltiter-Glo luminescent assay relative to control; assay type: functional
[34] = organism: Homo sapiens; test: Upregulation of TMED7 mRNA level in human M2025 cells by SYBR-green dye based qRT-PCR analysis; assay type: functional, cell-based
[35] = organism: Homo sapiens; test: Downregulation of XRCC5 mRNA level in human M433 cells by SYBR-green dye based qRT-PCR analysis; assay type: functional, cell-based
[36] = test system: M34; test: Upregulation of PLOD2 mRNA level in human M34 cells by SYBR-green dye based qRT-PCR analysis; assay type: functional, cell-based
[37] = organism: Homo sapiens; test: Downregulation of XRCC5 mRNA level in human M2025 cells by SYBR-green dye based qRT-PCR analysis; assay type: functional, cell-based
[38] = organism: Homo sapiens; test: Downregulation of NSUN5 mRNA level in human M2025 cells by SYBR-green dye based qRT-PCR analysis; assay type: functional, cell-based
[39] = test system: M34; test: Upregulation of TMED7 mRNA level in human M34 cells by SYBR-green dye based qRT-PCR analysis; assay type: functional, cell-based
[40] = Chemosensitization activity in human M221 cells assessed as reduction in cell viability at 20 uM measured after 72 hrs in presence of 0.8 mM sodium valproate by Celltiter-Glo luminescent assay relative to control; assay type: functional
[41] = Cytotoxicity against human M133 cells assessed as reduction in cell viability measured after 72 hrs by Celltiter-Glo luminescent assay; assay type: functional, cell-based
[42] = Cytotoxicity against human M7 cells assessed as reduction in cell viability measured after 72 hrs by Celltiter-Glo luminescent assay; assay type: functional, cell-based
[43] = Cytotoxicity against human M307 cells assessed as reduction in cell viability measured after 72 hrs by Celltiter-Glo luminescent assay; assay type: functional, cell-based
[44] = organism: Homo sapiens; test: Upregulation of PLOD2 mRNA level in human M193 cells by SYBR-green dye based qRT-PCR analysis; assay type: functional, cell-based
[45] = organism: Homo sapiens; test: Downregulation of NSUN5 mRNA level in human M433 cells by SYBR-green dye based qRT-PCR analysis; assay type: functional, cell-based
[46] = organism: Homo sapiens; test: Downregulation of NSUN5 mRNA level in human M221 cells by SYBR-green dye based qRT-PCR analysis; assay type: functional, cell-based
[47] = Cytotoxicity against human M433 cells assessed as reduction in cell viability measured after 72 hrs by Celltiter-Glo luminescent assay; assay type: functional, cell-based
[48] = test system: M34; test: Cytotoxicity against human M34 cells assessed as reduction in cell viability measured after 72 hrs by Celltiter-Glo luminescent assay; assay type: functional, cell-based; details: M34, 72 h
[49] = Cytotoxicity against human SHM20A2 cells assessed as reduction in cell viability measured after 72 hrs by Celltiter-Glo luminescent assay; assay type: functional, cell-based
[50] = Synergistic cytotoxicity against human M221 cells assessed as combination index at 20 uM measured after 72 hrs in presence of 0.05 mM sodium valproate by Celltiter-Glo luminescent assay based Chou-Talalay method; assay type: functional
[51] = Cytotoxicity against human M24 cells assessed as reduction in cell viability measured after 72 hrs by Celltiter-Glo luminescent assay; assay type: functional, cell-based; details: M24, 72 h

CCCC(CCC)C(=O)O
Activity [1]: inactive | Activity [2]: inactive

CSc1nc(Nc2cccc(Cl)c2)c2cnn(CCc3ccccc3)c2n1
IC50 [3]: 0.09 to 9.01 µM | Activity [4]: Active | IC50 [5]: 0.09 to 9.01 µM | IC50 [6]: 0.09 to 9.01 µM | Activity [7]: 84% | IC50 [8]: 0.09 to 9.01 µM | Activity [9]: Active | Activity [10]: 89% | Activity [11]: Active | CI [12]: 0.696 | Activity [13]: Active | Activity [14]: Active | CI [15]: 0.681 | Activity [16]: 47% | Activity [17]: Active | Activity [18]: Active | IC50 [19]: 0.09 to 9.01 µM | IC50 [20]: 0.09 to 9.01 µM | Activity [21]: 75% | IC50 [22]: 0.09 to 9.01 µM | CI [23]: 0.835 | Activity [24]: Active | Activity [25]: Active | Activity [26]: 84% | CI [27]: 0.603 | IC50 [28]: 0.09 to 9.01 µM | Activity [29]: 75% | CI [30]: 0.76 | Activity [31]: Active | Activity [32]: Active | Activity [33]: 55% | Activity [34]: Active | Activity [35]: Active | Activity [36]: Active | Activity [37]: Active | Activity [38]: Active | Activity [39]: Active | Activity [40]: 92% | IC50 [41]: 0.09 to 9.01 µM | IC50 [42]: 0.09 to 9.01 µM | IC50 [43]: 0.09 to 9.01 µM | Activity [44]: Active | Activity [45]: Active | Activity [46]: Active | IC50 [47]: 0.09 to 9.01 µM | IC50 [48]: 0.09 to 9.01 µM | IC50 [49]: 0.09 to 9.01 µM | CI [50]: 0.766 | IC50 [51]: 0.09 to 9.01 µM
